The values that follow come from US7605272B2, “IGF-1R inhibitor” (Kyowa Hakko Kirin Co., Ltd., priority 2005, dated 2009).

Molecules are shown by their SMILES.

The target of experiment [1] is T1, IGF-1R (Homo sapiens, UniProt P08069).
T1 construct: purchased Upstate Co. 14-465
The experiment is described as follows: IGF-1R inhibitory activity (kinase reaction, time-resolved fluoroimmunoassay). The experiment is classed as biochemical. The conditions noted are these: IGF-1R active recombinant enzyme, test compound 10 μmol/L. An outline of the steps:
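Compounds were tested at a single 10 μmol/L concentration. Each was incubated with recombinant IGF-1R (200 μg/L), 10 mmol/L ATP, MgCl2/MnCl2 and Na3VO4 (pH 7.5) on immobilized poly(Glu-Tyr) peptide for 30 min at 24° C. Eu-anti-phosphotyrosine time-resolved fluorescence (340/615 nm) gave relative activity against no-compound and no-enzyme wells, reported as % inhibition.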

Experiment [2] deals with KMS-11. The experiment is described as follows: Cytostatic activity on human multiple myeloma cell line KMS-11 (WST-1). The experiment is classed as cell-based. Conditions: 1 μmol/L, 72 hours; for inhibition at 1 µM: Homo sapiens, KMS-11, 72 h, read-out: cytostatic rate (%) KMS-11 (1 μmol/L). An outline of the steps:
(§1)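 Cells pre-cultured 24 h at 37 °C, 5% CO2, then exposed 72 h to compound at final 1 or 10 μmol/L (0.1% DMSO). WST-1 added for 2 h, absorbance at 450 nm (ref 690 nm). Cytostatic rate = 100 minus relative growth, with DMSO control as 100% and blank as 0%.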

In experiment [3] the test system is NCI-H929. The experiment is described as follows: Cytostatic activity on human multiple myeloma cell line NCI-H929 (WST-1). Type of experiment: cell-based. Conditions: 1 μmol/L, 72 hours; for inhibition at 1 µM: Homo sapiens, NCI-H929, 72 h, read-out: cytostatic rate (%) H929 (1 μmol/L). An outline of the steps: as §1

T1 sequence (P08069 959-1367 limits assumed): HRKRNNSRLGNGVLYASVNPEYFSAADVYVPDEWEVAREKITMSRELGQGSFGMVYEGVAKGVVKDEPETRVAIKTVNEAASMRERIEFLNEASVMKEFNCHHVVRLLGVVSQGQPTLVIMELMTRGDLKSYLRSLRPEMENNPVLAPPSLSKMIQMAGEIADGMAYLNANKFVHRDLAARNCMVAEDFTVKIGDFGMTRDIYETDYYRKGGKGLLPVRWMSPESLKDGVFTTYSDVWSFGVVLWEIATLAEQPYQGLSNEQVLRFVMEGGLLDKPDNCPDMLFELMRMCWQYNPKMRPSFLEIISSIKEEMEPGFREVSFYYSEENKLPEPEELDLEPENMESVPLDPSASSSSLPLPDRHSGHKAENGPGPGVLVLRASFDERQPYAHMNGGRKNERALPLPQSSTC

With `COCCN(CCN1CCOCC1)c1ccc(/C=C/c2n[nH]c3ccccc23)c(NC(=O)c2sccc2C)c1` [Compound 267, (E)-N-{2-[2-(1H-indazol-3-yl)vinyl]-5-[N-(2-methoxyethyl)-2-(morpholinoethyl)amino]phenyl}-3-methylthiophene-2-carboxamide], in experiment [1], the “inhibitory activity (%) at 10 μmol/L” value is 100.3%. Also, the “cytostatic rate (%) KMS-11 (1 μmol/L)” value in experiment [2] is listed as 133.8%. Further, the “cytostatic rate (%) H929 (1 μmol/L)” value in experiment [3] stood at 118.1%.
Consider `Cc1ccsc1C(=O)Nc1cc(CN2CCN(CCC#N)CC2)ccc1/C=C/c1n[nH]c2ccccc12` [Compound 268, (E)-N-{5-[4-(2-cyanoethyl)piperazin-1-ylmethyl]-2-[2-(1H-indazol-3-yl)vinyl]phenyl}-3-methylthiophene-2-carboxamide], for which, in experiment [1], the inhibition at 10 µM came to 101%. The inhibition at 1 µM in experiment [2] was 129%; in experiment [3], 118%.
For `CC(=O)N1CCN(Cc2ccc(/C=C/c3n[nH]c4ccccc34)c(NC(=O)c3sccc3C)c2)CC1` [Compound 269, (E)-N-{5-(4-acetylpiperazin-1-ylmethyl)-2-[2-(1H-indazol-3-yl)vinyl]phenyl}-3-methylthiophene-2-carboxamide], the inhibition at 10 µM in experiment [1] amounted to 101%. Also, the inhibition at 1 µM in experiment [2] was 132%; in experiment [3] it was 119%.
For `Cc1ccsc1C(=O)Nc1cc(CN2CCN(C=O)CC2)ccc1/C=C/c1n[nH]c2ccccc12` [Compound 270, (E)-N-{5-(4-formylpiperazin-1-ylmethyl)-2-[2-(1H-indazol-3-yl)vinyl]phenyl}-3-methylthiophene-2-carboxamide] the same measures were 100%, 129% and 121%.
As for `COCCN1CCN(Cc2ccc(/C=C/c3n[nH]c4ccccc34)c(NC(=O)c3sccc3C)c2)CC1` [Compound 271, (E)-N-{2-[2-(1H-indazol-3-yl)vinyl]-5-[4-(2-methoxyethyl)piperazin-1-ylmethyl]phenyl}-3-methylthiophene-2-carboxamide], the inhibition at 10 µM in experiment [1] was found to be 102%. Further, the inhibition at 1 µM in experiment [2] is 123%; in experiment [3], 119%.
`Cc1ccsc1C(=O)Nc1cc(N2CCN(S(C)(=O)=O)CC2)ccc1/C=C/c1n[nH]c2ccccc12` [Compound 272, (E)-N-{2-[2-(1H-indazol-3-yl)vinyl]-5-(4-methanesulfonylpiperazin-1-yl)phenyl}-3-methylthiophene-2-carboxamide]: in experiment [1], the inhibition at 10 µM turned out to be 101%. Besides, the inhibition at 1 µM in experiment [2] was 135%; in experiment [3], 120%.
Turning to `Cc1ccsc1C(=O)Nc1cc(N2CCN(CCO)CC2)ccc1/C=C/c1n[nH]c2ccccc12` [Compound 273, (E)-N-{5-[4-(2-hydroxyethyl)piperazin-1-yl]-2-[2-(1H-indazol-3-yl)vinyl]phenyl}-3-methylthiophene-2-carboxamide], the inhibition at 10 µM in experiment [1] amounted to 104%. The inhibition at 1 µM in experiment [2] came out at 111%; in experiment [3], 115%.
Take `Cc1ccsc1C(=O)Nc1cc(N2CCNCC2)ccc1/C=C/c1n[nH]c2ccccc12` [Compound 274, (E)-N-{2-[2-(1H-indazol-3-yl)vinyl]-5-piperazin-1-ylphenyl}-3-methylthiophene-2-carboxamide]: in experiment [1], the inhibition at 10 µM came out at 104%. The inhibition at 1 µM in experiment [2] came out at 108%; in experiment [3] it was 114%.
Regarding `COCCOc1ccc(/C=C/c2n[nH]c3ccccc23)c(NC(=O)c2sccc2C)c1` [Compound 275, (E)-N-{2-[2-(1H-indazol-3-yl)vinyl]-5-(2-methoxyethoxy)phenyl}-3-methylthiophene-2-carboxamide], the inhibition at 10 µM in experiment [1] was found to be 98.6%. For the same compound, the values for the inhibition at 1 µM in experiment [2] and in experiment [3] were 116% and 118%, respectively.
Turning to `Cc1ccsc1C(=O)Nc1cc(CN2CCN(CCCO)CC2)ccc1/C=C/c1n[nH]c2ccccc12` [Compound 277, (E)-N-{5-[4-(3-hydroxypropyl)piperazin-1-ylmethyl]-2-[2-(1H-indazol-3-yl)vinyl]phenyl}-3-methylthiophene-2-carboxamide], the inhibition at 10 µM in experiment [1] was found to be 99.5%. For the same compound, the inhibition at 1 µM in experiment [2] was 107%; in experiment [3], 119%.
As for `COCCN1CCN(c2ccc(/C=C/c3n[nH]c4ccccc34)c(NC(=O)c3sccc3C)c2)CC1` [Compound 279, (E)-N-{2-[2-(1H-indazol-3-yl)vinyl]-5-[4-(2-methoxyethyl)piperazin-1-yl]phenyl}-3-methylthiophene-2-carboxamide], the inhibition at 10 µM in experiment [1] was determined as 98.2%. Besides, the inhibition at 1 µM in experiment [2] amounted to 111%; in experiment [3], 112%.
Take `Cc1ccsc1C(=O)Nc1cc(N(C)CCO)ccc1/C=C/c1n[nH]c2ccccc12` [Compound 280]: in experiment [1], the “inhibitory activity (%) at 10 μmol/L” value turned out to be 97.6%. Also, in experiment [2], the “cytostatic rate (%) KMS-11 (1 μmol/L)” value was 109.0%. Further, the “cytostatic rate (%) H929 (1 μmol/L)” value in experiment [3] was determined as 112.2%.
For `Cc1ccsc1C(=O)Nc1cc(C(=O)N2CCN(CCO)CC2)ccc1/C=C/c1n[nH]c2ccccc12` [Compound 281, (E)-N-{5-[4-(2-hydroxyethyl)piperazin-1-ylcarbonyl]-2-[2-(1H-indazol-3-yl)vinyl]phenyl}-3-methylthiophene-2-carboxamide], the inhibition at 10 µM in experiment [1] was determined as 97.2%. Also, the inhibition at 1 µM in experiment [2] worked out at 115%; in experiment [3], 128%.
For `Cc1ccsc1C(=O)Nc1cc(C(=O)NCCN2CCOCC2)ccc1/C=C/c1n[nH]c2ccccc12` [Compound 282, (E)-N-(2-[2-(1H-indazol-3-yl)vinyl]-5-{N-[2-(morpholin-4-yl)ethyl]carbamoyl}phenyl)-3-methylthiophene-2-carboxamide], in that order: 99.2%, 123% and 130%.
In the case of `CNC1CCN(C(=O)c2ccc(/C=C/c3n[nH]c4ccccc34)c(NC(=O)c3sccc3C)c2)C1` (stereo not drawn) [Compound 283, (E)-N-{2-[2-(1H-indazol-3-yl)vinyl]-5-[3-(methylamino)pyrrolidin-1-ylcarbonyl]phenyl}-3-methylthiophene-2-carboxamide], in experiment [1], the inhibition at 10 µM came to 101%. For the same compound, the figures for the inhibition at 1 µM in experiment [2] and in experiment [3] were 116% and 128%, respectively.
In the case of `COCCN(CCN(C)C)c1ccc(/C=C/c2n[nH]c3ccccc23)c(NC(=O)c2sccc2C)c1` [Compound 284, (E)-N-{5-[N-(2-dimethylaminoethyl)-2-(methoxyethyl)amino]-2-[2-(1H-indazol-3-yl)vinyl]phenyl}-3-methylthiophene-2-carboxamide], the “inhibitory activity (%) at 10 μmol/L” value in experiment [1] worked out at 97.5%. Moreover, the “cytostatic rate (%) KMS-11 (1 μmol/L)” value in experiment [2] came to 130.8%. In experiment [3], the “cytostatic rate (%) H929 (1 μmol/L)” value is reported as 121.2%.
As for `O=C(Nc1cc(C(=O)N2CCN(CCO)CC2)ccc1/C=C/c1n[nH]c2ccccc12)c1cccs1` [Compound 289, (E)-N-{5-[4-(2-hydroxyethyl)piperazin-1-ylcarbonyl]-2-[2-(1H-indazol-3-yl)vinyl]phenyl}thiophene-2-carboxamide], in experiment [1], the inhibition at 10 µM was 93.5%. In addition, the inhibition at 1 µM in experiment [2] was found to be 73.6%; in experiment [3], 102%.
For `COc1cc(/C=C/c2n[nH]c3ccccc23)c(NC(=O)c2sccc2C)cc1OCCCN1CCOCC1` [Compound 292, (E)-N-{2-[2-(1H-indazol-3-yl)vinyl]-4-methoxy-5-[3-(morpholin-4-yl)propyloxy]phenyl}-3-methylthiophene-2-carboxamide], in that order: 97.2%, 122% and 113%.
